Values of other authors as cited in article PMC10694761 (Cell Reports Medicine, 2023).

Tests used:
[1] = rats
[2] = humans
[3] = micromolar concentrations

## Liraglutide
[1]
  half-life of absorption from the s.c. space (t1/2, s.c.): ~9.6 min
  half-life of elimination from the systemic circulation (t1/2, serum): ~4.01 h
[2]
  t1/2, serum: ~13 h
[3]
  self-association state: heptameric structures
